# Measurements from ChEMBL document CHEMBL5550150, “Discovery of 9H-pyrimido[4,5-b]indole derivatives as dual RET/TRKA inhibitors” (Bioorg Med Chem, 2024).
# Activity calls are given as the source filed them. The calls are words filed in the database; no cut-off is given here.
# How the values were obtained:
# [1] = biological target: Proto-oncogene tyrosine-protein kinase receptor Ret (Homo sapiens, UniProt P07949); assay: Inhibition of 5FAM-tagged RET (unknown origin) using 5FAM-EPLYWSFPA as substrate incubated for 60 mins
# [2] = biological target: T1, High affinity nerve growth factor receptor (Homo sapiens, UniProt P04629); assay: Inhibition of TRK (unknown origin)
# Target sequence in this assay (P04629 whole entry): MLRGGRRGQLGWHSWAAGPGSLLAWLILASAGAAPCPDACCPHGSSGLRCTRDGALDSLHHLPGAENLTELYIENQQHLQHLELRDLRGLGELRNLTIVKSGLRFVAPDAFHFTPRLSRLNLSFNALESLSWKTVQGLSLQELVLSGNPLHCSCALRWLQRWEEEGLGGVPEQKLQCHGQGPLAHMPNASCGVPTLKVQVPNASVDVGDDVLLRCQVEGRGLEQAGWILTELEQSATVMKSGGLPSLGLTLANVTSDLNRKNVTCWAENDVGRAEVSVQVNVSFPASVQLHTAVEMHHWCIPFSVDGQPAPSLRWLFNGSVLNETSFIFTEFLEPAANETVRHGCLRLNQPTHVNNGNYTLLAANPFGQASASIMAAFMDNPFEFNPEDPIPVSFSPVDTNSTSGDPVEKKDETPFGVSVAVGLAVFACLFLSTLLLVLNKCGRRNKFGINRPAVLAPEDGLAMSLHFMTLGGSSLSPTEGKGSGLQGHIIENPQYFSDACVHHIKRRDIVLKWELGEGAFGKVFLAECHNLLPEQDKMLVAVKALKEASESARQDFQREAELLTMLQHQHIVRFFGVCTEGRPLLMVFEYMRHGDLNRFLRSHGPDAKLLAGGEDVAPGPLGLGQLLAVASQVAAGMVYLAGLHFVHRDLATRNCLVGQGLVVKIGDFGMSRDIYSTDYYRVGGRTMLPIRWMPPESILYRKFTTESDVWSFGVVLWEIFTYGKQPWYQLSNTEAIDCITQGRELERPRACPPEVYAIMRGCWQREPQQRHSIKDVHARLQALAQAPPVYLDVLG
# [3] = test system: LC-2-ad; assay: Induction of cell cycle arrest in human LC-2-ad cells assessed as accumulation of cells at G1 phase at 0.01 uM incubated for 24 hrs by flow cytometry analysis; type: functional, cell-based
# [4] = test system: LC-2-ad; assay: Antiproliferative activity against human LC-2-ad cells harbouring RET assessed as reduction in cell viability; type: functional
# [5] = test system: KM12; assay: Antiproliferative activity against human KM12 cells harbouring TRK assessed as reduction in cell viability; type: functional
# [6] = test system: A549; assay: Antiproliferative activity against human A549 cells harbouring KRAS assessed as reduction in cell viability; type: functional
# [7] = test system: A549; assay: Induction of cell cycle arrest in human A549 cells assessed as accumulation of cells at G1 phase at 0.01 uM incubated for 24 hrs by flow cytometry analysis; type: functional, cell-based
# [8] = test system: KM12; assay: Induction of cell cycle arrest in human KM12 cells assessed as accumulation of cells at G1 phase at 0.01 uM incubated for 24 hrs by flow cytometry analysis; type: functional, cell-based
# [9] = biological target: T1, High affinity nerve growth factor receptor; assay: Inhibition of TRK autophosphorylation in human LC-2-ad cells at 0.01 to 1 uM measured after 24 hrs by Western blot analysis; type: cell-based; conditions: dose 0.01-1 µM
# Target sequence in this assay (P04629 33-796 limits assumed): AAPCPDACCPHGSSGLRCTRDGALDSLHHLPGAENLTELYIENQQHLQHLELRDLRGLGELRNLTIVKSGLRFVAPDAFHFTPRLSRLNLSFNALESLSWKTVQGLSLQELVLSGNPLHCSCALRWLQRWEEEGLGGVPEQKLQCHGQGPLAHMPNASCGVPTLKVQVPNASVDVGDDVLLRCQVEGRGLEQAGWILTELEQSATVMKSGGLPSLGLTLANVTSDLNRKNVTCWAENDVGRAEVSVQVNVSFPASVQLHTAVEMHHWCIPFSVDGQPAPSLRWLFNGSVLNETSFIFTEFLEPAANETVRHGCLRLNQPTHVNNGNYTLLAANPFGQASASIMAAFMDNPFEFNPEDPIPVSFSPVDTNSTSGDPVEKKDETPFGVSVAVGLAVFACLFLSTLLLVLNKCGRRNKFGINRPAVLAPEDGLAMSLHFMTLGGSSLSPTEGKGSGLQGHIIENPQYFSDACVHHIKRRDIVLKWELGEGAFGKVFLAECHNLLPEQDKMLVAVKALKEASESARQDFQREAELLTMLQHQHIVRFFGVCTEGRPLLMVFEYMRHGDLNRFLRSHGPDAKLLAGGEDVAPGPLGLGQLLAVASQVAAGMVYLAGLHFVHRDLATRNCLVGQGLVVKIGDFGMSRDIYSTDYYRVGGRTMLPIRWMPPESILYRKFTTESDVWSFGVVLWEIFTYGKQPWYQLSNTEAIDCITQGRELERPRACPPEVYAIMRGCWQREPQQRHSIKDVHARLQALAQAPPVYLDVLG
# [10] = test system: KM12; assay: Induction of cell cycle arrest in human KM12 cells assessed as accumulation of cells at G1 phase at 1 uM incubated for 24 hrs by flow cytometry analysis; type: functional, cell-based
# [11] = biological target: T1, High affinity nerve growth factor receptor; assay: Inhibition of TRK autophosphorylation in human KM12 cells at 0.01 to 1 uM measured after 24 hrs by Western blot analysis; type: cell-based; conditions: dose 0.01-1 µM
# Target sequence in this assay (P04629 33-796 limits assumed): as above
# [12] = test system: LC-2-ad; assay: Induction of cell cycle arrest in human LC-2-ad cells assessed as accumulation of cells at G1 phase at 1 uM incubated for 24 hrs by flow cytometry analysis; type: functional, cell-based
# [13] = biological target: T1, High affinity nerve growth factor receptor; assay: Inhibition of TRK autophosphorylation (unknown origin)
# Target sequence in this assay (P04629 33-796 limits assumed): as above
# Chain of Proto-oncogene tyrosine-protein kinase receptor Ret (P07949 whole entry): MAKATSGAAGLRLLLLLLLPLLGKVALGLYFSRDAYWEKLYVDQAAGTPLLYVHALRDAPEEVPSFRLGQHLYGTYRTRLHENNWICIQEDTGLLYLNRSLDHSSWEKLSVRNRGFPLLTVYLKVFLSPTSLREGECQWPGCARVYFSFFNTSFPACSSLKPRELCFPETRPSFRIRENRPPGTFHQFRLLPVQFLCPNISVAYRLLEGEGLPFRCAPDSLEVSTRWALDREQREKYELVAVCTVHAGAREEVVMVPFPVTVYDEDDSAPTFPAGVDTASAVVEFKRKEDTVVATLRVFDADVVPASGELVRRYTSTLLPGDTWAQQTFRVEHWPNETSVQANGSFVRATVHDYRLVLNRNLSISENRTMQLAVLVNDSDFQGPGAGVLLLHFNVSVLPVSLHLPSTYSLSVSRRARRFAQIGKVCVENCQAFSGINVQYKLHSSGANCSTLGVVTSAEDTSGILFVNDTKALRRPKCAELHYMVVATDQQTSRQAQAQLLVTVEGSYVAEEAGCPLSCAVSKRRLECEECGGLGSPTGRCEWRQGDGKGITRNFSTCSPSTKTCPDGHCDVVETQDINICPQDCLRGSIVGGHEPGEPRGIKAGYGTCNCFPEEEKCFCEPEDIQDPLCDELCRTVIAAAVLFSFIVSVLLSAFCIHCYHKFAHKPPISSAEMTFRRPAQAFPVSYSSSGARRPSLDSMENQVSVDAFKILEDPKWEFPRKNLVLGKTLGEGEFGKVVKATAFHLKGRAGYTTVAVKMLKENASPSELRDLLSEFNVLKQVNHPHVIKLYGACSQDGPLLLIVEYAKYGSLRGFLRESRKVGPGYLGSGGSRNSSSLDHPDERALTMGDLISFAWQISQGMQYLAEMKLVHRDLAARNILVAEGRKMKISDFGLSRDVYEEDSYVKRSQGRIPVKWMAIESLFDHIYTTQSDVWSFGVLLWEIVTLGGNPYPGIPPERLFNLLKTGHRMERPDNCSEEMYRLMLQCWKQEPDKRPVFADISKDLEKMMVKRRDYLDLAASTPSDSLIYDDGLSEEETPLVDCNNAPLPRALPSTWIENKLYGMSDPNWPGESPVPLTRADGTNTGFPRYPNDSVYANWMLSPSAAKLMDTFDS
Structure (SMILES),inhibition [13],GC50 [4] [nM],GC50 [5] [nM],GC50 [6] [nM],Activity [10],Activity [12],other results
Cn1cc(-c2ccc3c(c2)ncn3-c2ccc(CC(=O)Nc3cc(C(C)(C)C)on3)cc2)cn1,–,–,–,–,–,–,IC50 [1]: 1 nM; IC50 [2]: 1.6 nM
CNC(=O)c1cc(Oc2ccc(NC(=O)Nc3ccc(Cl)c(C(F)(F)F)c3)cc2)ccn1 [SORAFENIB],–,540,3820,7200,–,–,Activity [3]: Active; Activity [7]: Active; Activity [8]: Active
COc1cc2nccc(Oc3ccc(NC(=O)C4(C(=O)Nc5ccc(F)cc5)CC4)cc3)c2cc1OC [CABOZANTINIB],–,–,–,–,–,–,IC50 [2]: 79 nM
O=C(Cc1ccc(Nc2ncnc3[nH]c4ccccc4c23)cc1)Nc1cccc(C(F)(F)F)c1,–,940,490,>10000,–,–,–
COCCn1cc(-c2ccc3c(c2)[nH]c2ncnc(Nc4ccc(CC(=O)Nc5cc(C(C)(C)C)on5)cc4)c23)cn1,–,360,590,5880,–,–,–
C[C@@H]1CCc2ncc(F)cc2[C@H]2CCCN2c2ccn3ncc(c3n2)C(=O)N1 [SELITRECTINIB],–,25980,5,>40000,–,–,Activity [3]: Active; Activity [7]: Active; Activity [8]: Active

# Now from value to compound, other results behind:
inhibition [13],Structure (SMILES),GC50 [4] [nM],GC50 [5] [nM],GC50 [6] [nM],Activity [10],Activity [12],other results
Active,Cn1nc(C(C)(C)C)cc1NC(=O)Cc1ccc(Nc2ncnc3[nH]c4ccccc4c23)cc1,–,–,–,Active,Active,inhibition [9]: Active; inhibition [11]: Active
Active,Cn1cc(-c2ccc3c(c2)[nH]c2ncnc(Nc4ccc(CC(=O)Nc5cc(C(C)(C)C)on5)cc4)c23)cn1,–,–,–,Active,Active,–
Active,Cn1cc(-c2ccc3c(c2)[nH]c2ncnc(Nc4ccc(CC(=O)Nc5cc(C(C)(C)C)nn5C)cc4)c23)cn1,–,–,–,Active,Active,inhibition [9]: Active; inhibition [11]: Active
